Experiments:
[1] = tested on: adult hippocampus-derived neural progenitor cells; assay: mathematical model of proliferation and differentiation rates; set-up: species or system rat; details: 500 ng/ml IGF-I
Description: Therefore, to separate the IGF-I effects on proliferation of progenitors from the instructive differentiation of progenitors to oligodendrocytes, we developed a mathematical model (as shown in FIG. 4A). This modeling approach has previously been used to quantify the effects of hippocampal astrocytes on the proliferation and neuronal differentiation of adult neural progenitor cells (Song et al., 2002). To distinguish the proliferation and differentiation rates, the model required that we count the number of RIP+ cells that were either positive or negative for BrdU at each time point. […] Because of this finding, we decided to separate the proliferation rate of RIP− (defined as α) and RIP+ cells (γ), as well as the differentiation rate (β) of RIP− to RIP+ cells. The overall death rate measured by Hoechst dye in live cultures could not be experimentally separated into a RIP− death rate (δ) and a RIP+ death rate (ε) (Song et al., 2002). Therefore, the model was bounded by the two possibilities that all cell death is from only RIP− or only RIP+ cells. We also considered the more probable assumption that the death rates for both RIP− and RIP+ cells were equal.
Six equations were used to derive values for these rates. The first equation describes the differential gain in RIP− cells: dN^RIP−/dt=(α−δ)N^RIP−−βN^RIP− (b 1) where N^RIP−is the number of RIP− cells, α is the proliferation rate of RIP− cells (per 12-h interval), β is the differentiation rate of RIP− into RIP+ cells, and δ is the death rate of RIP− cells. Similarly for RIP+ cells, dN^RIP+/dt=(γ−ε)N^RIP++βN^RIP− (2) where N^RIP+ is the number of RIP+ cells, […] is a proliferation rate of RIP+ cells, and ε is the RIP+ death rate. The sum of (1) and (2) is the equation defining total cell count: dN^Total/dt=(α−δ)N^RIP−+(γ−ε)N^RIP+ (3)
The time-course experiments were performed in 12-h intervals, allowing for measurement of the proliferation and differentiation rates at each 12-h time interval—αi is the proliferation rate of RIP− cells at time ‘i’ and so forth. […]

[2] = tested on: multipotent neural progenitor cells derived from the whole brain of P10 ICR mice; assay: differentiation of whole brain-derived multipotent neural progenitor cells; format: cell-based, mouse; details: IGF-I treatment, primary cultures (unpublished data)
Protocol: The neural progenitor cells isolated from the hippocampus of female Fischer 344 used in this study have been characterized previously (Gage et al., 1995; Palmer et al., 1997). The whole brain-derived neural stem cells from PIO ICR mice were isolated and cultured according to the methods as described, with slight modifications. Cells were cultured as previously described (Gage et al., 1995; Ray et al., 1993). Cells between passages 10 and 20 were used for in vitro differentiation analyses. To induce differentiation, cells were plated into 4-well chamber slides at a density of 55,000-75,000 cells per well and were allowed to proliferate in N2-supplemented (Invitrogen) DMEM:F12 (Omega Scientific) medium containing 20 ng/ml FGF-2 (PeproTech, Inc.) for 24 hours. FGF-2 was then withdrawn and cells were subsequently treated with differentiation media. […] For IGF-induction experiments, cells were trypsinized, washed with 1× PBS, and plated into insulin-free N2 medium. Either human recombinant IGF-I or IGF-II (500 ng/ml; R&D Systems) or insulin (500 ng/ml; Sigma) was added for 4 days, except when indicated otherwise. In some cultures, BrdU (2.5 μM, Sigma) was added to label dividing cells, and Q-VD-OPh (2 μM, Enzyme Systems Products) was added to prevent apoptosis.

## IGF-I: human recombinant IGF-I (R&D Systems), growth factor polypeptide
[1]
  differentiation rate (β) of RIP− to RIP+ cells: increase in differentiation rate
  proliferation rate (γ) of RIP+ cells: increase in the proliferation rate
  proliferation rate of RIP− cells (α): no increase in the proliferation rate of RIP− cells
[2]
  differentiation into oligodendrocytes: exhibited a preferential differentiation into oligodendrocytes

Source: US20050148069A1, “IGF-1 instructs multipotent adult CNS neural stem cells to an oligodendroglial lineage” (priority 2003, published 2005)
